Where two headings read alike, the source gives them in different places. Square brackets hold non-standard residues; d marks the D form. Peptide text beside a SMILES is read from it. * marks the point of attachment. Boc = CC(C)(C)OC(=O)*
Target: recombinant rat Nln (Rattus norvegicus, UniProt P42676)
Assay: Nln activation, continuous quenched fluorescence substrate
Format: biochemical
[1] = 100% = normal enzyme turnover, mean of n = 4, 95% CI in parentheses

Sequence of recombinant rat Nln (P42676 38-704): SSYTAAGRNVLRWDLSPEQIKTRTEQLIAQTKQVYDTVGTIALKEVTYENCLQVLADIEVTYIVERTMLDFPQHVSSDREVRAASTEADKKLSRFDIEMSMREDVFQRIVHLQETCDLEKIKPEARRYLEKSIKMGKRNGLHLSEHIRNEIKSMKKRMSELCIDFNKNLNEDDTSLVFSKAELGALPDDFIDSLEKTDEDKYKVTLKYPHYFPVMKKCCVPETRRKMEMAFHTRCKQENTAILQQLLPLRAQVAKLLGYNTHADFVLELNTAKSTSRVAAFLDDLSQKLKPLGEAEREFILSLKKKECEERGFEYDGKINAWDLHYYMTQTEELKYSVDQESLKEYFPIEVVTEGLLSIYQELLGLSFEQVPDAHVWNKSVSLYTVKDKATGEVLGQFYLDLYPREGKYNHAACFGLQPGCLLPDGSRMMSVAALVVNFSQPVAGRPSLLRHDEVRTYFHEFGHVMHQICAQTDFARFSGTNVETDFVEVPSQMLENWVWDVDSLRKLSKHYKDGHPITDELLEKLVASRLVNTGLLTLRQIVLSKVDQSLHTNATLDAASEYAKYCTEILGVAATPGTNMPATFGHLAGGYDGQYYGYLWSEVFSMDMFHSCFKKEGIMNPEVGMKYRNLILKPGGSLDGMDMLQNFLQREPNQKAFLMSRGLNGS

| Structure (SMILES) | Amax, maximum % activation achieved (95% CI) | also measured |
| --- | --- | --- |
| NC(Cc1c[nH]cn1)C(=O)NCCc1c[nH]c2ccccc12 (racemic) [(rac)-9a, (rac)-N-(2-(1H-Indol-3-yl)ethyl)-2-amino-3-(1H-imidazol-4-yl)-propanamide] | – | Amax, maximum % activation achieved (95% CI) [1]: 197 (177.5 to 222.8) % |
| N[C@@H](Cc1cnc[nH]1)C(=O)N[C@@H](Cc1ccc(O)cc1)C(=O)O [Compound 1, His–Tyr] (H-His-Tyr-OH) | 465.2 (440.2 to 492.3) % | – |
| N[C@@H](Cc1c[nH]cn1)C(=O)N[C@@H](Cc1c[nH]cn1)C(=O)O [Compound 2, His–His] | 498.1 (481 to 516.5) % | – |
| N[C@@H](Cc1cnc[nH]1)C(=O)N[C@@H](Cc1ccccc1)C(=O)O [Compound 3, His–Phe] (H-His-Phe-OH) | 442.3 (418.8 to 467.6) % | – |
| N[C@@H](Cc1ccc(O)cc1)C(=O)N[C@H](Cc1c[nH]cn1)C(=O)O [Compound 4a, H-Tyr-His-OH] | – | Nln activation, result in words: complete amelioration of Nln activation |
| CC(C)(C)OC(=O)N[C@@H](Cc1ccc(O)cc1)C(=O)N[C@H](Cc1ccccc1)C(=O)O [Compound 4b] (Boc-Tyr-[dF]-OH) | – | Nln activation, result in words: inactive; Amax, maximum % activation achieved (95% CI) [1]: Inactive; A50, half maximal activation concentration (95% CI) (recombinant rat Nln, QFS […] μM, 37 °C, mean of n = 4, 95% CI in parentheses): Inactive |
| N[C@@H](Cc1c[nH]cn1)C(=O)NCCc1ccccc1 [Compound 4c, (S)-2-Amino-3-(1H-imidazol-4-yl)-N-phenethylpropanamide] | – | Amax, maximum % activation achieved (95% CI) [1]: 337.2 (302 to 378.6) % |
| N[C@H](Cc1c[nH]cn1)C(=O)NCCc1ccccc1 [Compound 4d, (R)-2-Amino-3-(1H-imidazol-4-yl)-N-phenethylpropanamide] | – | Amax, maximum % activation achieved (95% CI) [1]: 294.6 (278.0 to 313) % |
| COc1ccc(CCNC(=O)[C@@H](N)Cc2c[nH]cn2)cc1 [Compound 4e, (S)-2-Amino-3-(1H-imidazol-4-yl)-N-(4-methoxyphenethyl)-propanamide] | – | Amax, maximum % activation achieved (95% CI) [1]: 339.4 (314.2 to 369.3) % |
| COc1ccc(CCNC(=O)[C@H](N)Cc2c[nH]cn2)cc1 [Compound 4f, (R)-2-Amino-3-(1H-imidazol-4-yl)-N-(4-methoxyphenethyl)-propanamide] | – | Amax, maximum % activation achieved (95% CI) [1]: 378.3 (350.5 to 411.9) % |
| COc1cccc(CCNC(=O)[C@H](N)Cc2c[nH]cn2)c1 [Compound 4j, (R)-2-Amino-3-(1H-imidazol-4-yl)-N-(3-methoxyphenethyl)-propanamide] | – | Amax, maximum % activation achieved (95% CI) [1]: 255.3 (230.5 to 284.8) % |
| N[C@@H](Cc1c[nH]cn1)C(=O)NCCc1ccc(C(F)(F)F)cc1 [Compound 4k, (S)-2-Amino-3-(1H-imidazol-4-yl)-N-(4-(trifluoromethyl)-phenethyl)propanamide] | 299.4 (283.9 to 316.2) % | – |
| N[C@H](Cc1c[nH]cn1)C(=O)NCCc1ccc(C(F)(F)F)cc1 [Compound 4l, (R)-2-Amino-3-(1H-imidazol-4-yl)-N-(4-(trifluoromethyl)-phenethyl)propanamide] | 330.1 (313.9 to 347.7) % | – |
| N[C@@H](Cc1c[nH]cn1)C(=O)NCCc1ccc([N+](=O)[O-])cc1 [Compound 4o, (S)-2-Amino-3-(1H-imidazol-4-yl)-N-(4-nitrophenethyl)-propanamide] | 282.4 (266.5 to 299.5) % | – |
| N[C@H](Cc1c[nH]cn1)C(=O)NCCc1ccc([N+](=O)[O-])cc1 [Compound 4p, (R)-2-Amino-3-(1H-imidazol-4-yl)-N-(4-nitrophenethyl)-propanamide] | 267.5 (250.1 to 287.1) % | – |
| N[C@@H](Cc1c[nH]cn1)C(=O)NCCc1ccc(-c2ccccc2)cc1 [Compound 4q, (S)-N-(2-([1,1′-Biphenyl]-4-yl)ethyl)-2-amino-3-(1H-imidazol-4-yl)propanamide] | 258.2 (244 to 273.4) % | – |
| N[C@H](Cc1c[nH]cn1)C(=O)NCCc1ccc(-c2ccccc2)cc1 [Compound 4r, (R)-N-(2-([1,1′-biphenyl]-4-yl)ethyl)-2-amino-3-(1H-imidazol-4-yl)propanamide] | 269.7 (256.8 to 283.4) % | – |

More lines, main results first:

| Amax, maximum % activation achieved (95% CI) | Structure (SMILES) | also measured |
| --- | --- | --- |
| 152.2 (137.3 to 171.5) % | N[C@@H](Cc1c[nH]cn1)C(=O)NCc1ccccc1 [Compound 5a, (S)-2-Amino-N-benzyl-3-(1H-imidazol-4-yl)propanamide] | – |
| 428.8 (373 to 523.5) % | COc1ccc(CNC(=O)[C@@H](N)Cc2c[nH]cn2)cc1 [Compound 5b, (S)-2-Amino-3-(1H-3l4-imidazol-4-yl)-N-(4-methoxybenzyl)-propanamide] | – |
| 703.5 (588.9 to 915.6) % | COc1ccc(CNC(=O)[C@H](N)Cc2cnc[nH]2)cc1 [Compound 5c, (R)-2-Amino-3-(1H-imidazol-4-yl)-N-(4-methoxybenzyl)-propanamide] | – |
| 385.8 (363.8 to 410.5) % | COc1ccccc1CNC(=O)[C@@H](N)Cc1c[nH]cn1 [Compound 5d, (S)-2-Amino-3-(1H-3l4-imidazol-4-yl)-N-(2-methoxybenzyl)-propanamide] | – |
| 324.9 (304 to 349) % | COc1ccccc1CNC(=O)[C@H](N)Cc1c[nH]cn1 [Compound 5e, (R)-2-Amino-3-(1H-3l4-imidazol-4-yl)-N-(2-methoxybenzyl)-propanamide] | – |
| 327.5 (309.7 to 348.2) % | COc1cccc(CNC(=O)[C@@H](N)Cc2c[nH]cn2)c1 [Compound 5f, (S)-2-Amino-3-(1H-3l4-imidazol-4-yl)-N-(3-methoxybenzyl)-propanamide] | – |
| 477.1 (444 to 516) % | COc1cccc(CNC(=O)[C@H](N)Cc2cnc[nH]2)c1 [Compound 5g, (R)-2-Amino-3-(1H-3l4-imidazol-4-yl)-N-(3-methoxybenzyl)-propanamide] | – |
| 319.1 (296.3 to 344.3) % | N[C@H](Cc1c[nH]cn1)C(=O)NCc1ccc(C(F)(F)F)cc1 [Compound 5i, (R)-2-Amino-3-(1H-imidazol-4-yl)-N-(4-(trifluoromethyl)benzyl)-propanamide] | – |
| 345.8 (317.5 to 378.3) % | N[C@H](Cc1c[nH]cn1)C(=O)NCc1ccccc1C(F)(F)F [Compound 5k, (R)-2-Amino-3-(1H-imidazol-4-yl)-N-(2-(trifluoromethyl)benzyl)-propanamide] | – |
| 282 (258.4 to 309.1) % | N[C@H](Cc1c[nH]cn1)C(=O)NCc1cccc(C(F)(F)F)c1 [Compound 5m, (R)-2-Amino-3-(1H-imidazol-4-yl)-N-(3-(trifluoromethyl)benzyl)-propanamide] | – |
| 293 (276.5–310.7) % | N[C@@H](Cc1c[nH]cn1)C(=O)NCc1ccc(F)cc1 [Compound 5n, (S)-2-Amino-N-(4-fluorobenzyl)-3-(1H-imidazol-4-yl)-propanamide] | – |
| 320.5 (299.7 to 343.9) % | N[C@H](Cc1c[nH]cn1)C(=O)NCc1ccc(F)cc1 [Compound 5o, (R)-2-Amino-N-(4-fluorobenzyl)-3-(1H-imidazol-4-yl)-propanamide] | – |
| 310 (287.2 to 336.1) % | N[C@@H](Cc1c[nH]cn1)C(=O)NCc1ccc(OC(F)(F)F)cc1 [Compound 5p, (S)-2-Amino-3-(1H-imidazol-4-yl)-N-(4-(trifluoromethoxy)-benzyl)propanamide] | – |

Source: publication PMC9295256 (Journal of medicinal chemistry, 2021)
